Legend:
Y50Bg4 [1] = system: T1, Y50Bg4; experiment: glucose oxidase-peroxidase assay, Michaelis-Menten non-linear fit; assay type: biochemical, uncultured bacterium; settings: sodium citrate buffer pH 6.0, 60°C; 0-20 mg/mL substrate
T1 construct: expressed in E. coli DH5alpha, Ni-NTA purified; primers encode MKIDGGLKC... at N-end and ...EIIKKYKE at C-end
Description: glucose oxidase-peroxidase assay, Michaelis-Menten non-linear fit on Y50Bg4

Y50Bg4 [2] = system: T1, Y50Bg4; experiment: p-nitrophenol release at […] nm, Michaelis-Menten non-linear fit; assay type: biochemical, uncultured bacterium; settings: sodium citrate buffer pH 6.0, 60°C; 0-2 mM substrate

Row | Km (Y50Bg4 [1]) [mg/mL] | Km (Y50Bg4 [2]) [µM] | Compound
1 | 4.69 | – | OC[C@H]1O[C@@H](O[C@H]2[C@H](O)[C@@H](O)C(O)O[C@@H]2CO)[C@H](O)[C@@H](O)[C@@H]1O (some centres unmarked) [cellobiose]
2 | – | 530 | O=[N+]([O-])c1ccc(O[C@@H]2O[C@H](CO)[C@@H](O)[C@H](O)[C@H]2O)cc1 [p-nitrophenyl-β-D-glucopyranoside]

Source: paper PMC12023779, “Characterization, thermostable mechanism, and molecular docking of a novel glucose-tolerant β-glucosidase/β-galactosidase from the GH1 family isolated from Rehai hot spring” (Frontiers in Microbiology, 2025)
